Measurements published in patent US10179782B2, “Substituted sulfonamide compounds” (Genentech, Inc., priority 2016, dated 2019).

Each molecule was assayed against T1, human TRPA1 (Homo sapiens, UniProt O75762) (assay: TRPA1 FLIPR Tetra calcium influx assay in CHO cells (block of cinnamaldehyde-induced calcium influx)). Conditions: Table 2; CHO cells expressing TRPA1; agonist cinnamaldehyde 75 uM; 20 min compound incubation; Hill coefficient fixed to 1.5; read-out: hTRPA1 CHO Ca2+ AUC EVO (IC50).
T1 construct: expressed in transfected cells; host or cells: CHO cells
T1 sequence (O75762 whole entry): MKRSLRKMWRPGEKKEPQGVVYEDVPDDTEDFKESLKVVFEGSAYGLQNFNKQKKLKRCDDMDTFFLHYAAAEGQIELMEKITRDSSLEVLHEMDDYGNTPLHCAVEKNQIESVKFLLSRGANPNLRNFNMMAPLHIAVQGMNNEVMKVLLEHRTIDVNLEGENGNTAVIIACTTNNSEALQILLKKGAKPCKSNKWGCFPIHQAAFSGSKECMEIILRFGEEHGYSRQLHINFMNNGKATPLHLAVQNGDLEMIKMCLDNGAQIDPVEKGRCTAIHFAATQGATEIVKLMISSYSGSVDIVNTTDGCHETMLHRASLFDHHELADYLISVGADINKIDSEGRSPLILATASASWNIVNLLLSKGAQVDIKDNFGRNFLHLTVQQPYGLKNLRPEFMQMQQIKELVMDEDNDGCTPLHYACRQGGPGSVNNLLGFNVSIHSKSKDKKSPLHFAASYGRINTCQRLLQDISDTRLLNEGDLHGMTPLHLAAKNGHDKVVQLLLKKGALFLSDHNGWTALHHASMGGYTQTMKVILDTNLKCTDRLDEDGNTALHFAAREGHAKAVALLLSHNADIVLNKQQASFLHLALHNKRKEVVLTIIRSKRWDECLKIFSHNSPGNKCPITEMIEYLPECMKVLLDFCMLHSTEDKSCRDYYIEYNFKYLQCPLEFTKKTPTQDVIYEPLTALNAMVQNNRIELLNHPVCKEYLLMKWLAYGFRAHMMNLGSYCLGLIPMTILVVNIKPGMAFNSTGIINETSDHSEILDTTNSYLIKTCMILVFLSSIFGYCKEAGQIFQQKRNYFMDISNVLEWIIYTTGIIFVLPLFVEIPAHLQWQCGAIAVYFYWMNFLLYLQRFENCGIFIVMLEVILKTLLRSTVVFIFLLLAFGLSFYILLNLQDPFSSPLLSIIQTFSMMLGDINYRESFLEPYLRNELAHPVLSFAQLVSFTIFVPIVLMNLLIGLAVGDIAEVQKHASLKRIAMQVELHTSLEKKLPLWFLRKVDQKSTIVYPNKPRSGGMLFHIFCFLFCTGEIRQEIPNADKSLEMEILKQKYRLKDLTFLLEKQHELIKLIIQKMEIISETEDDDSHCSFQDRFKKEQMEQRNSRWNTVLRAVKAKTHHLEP
Format: cell-based
Protocol: IC50s (effective concentration) of compounds on the human and rat TRPA1 channels were determined using a FLIPR Tetra instrument. CHO cells expressing TRPA1 were plated into 384-well plates, incubated overnight at 37 C, and loaded with BD calcium indicator dye for 1 hr at 37° C. followed by 15 minutes at room temperature. The assay buffer was Hank's Balanced Salt Solution (HBSS) containing 20 mM HEPES (pH readjusted to 7.4) along with 0.02% BSA.
Following dye load and plate cool down, compounds were added to the cells using FLIPR Tetra. Plates were then incubated with compounds for 20 minutes at room temperature prior to adding agonist. Following this incubation, ˜EC80 concentration of cinnamaldehyde (75 uM for human TRPA1 and 45 uM for rat TRPA1) was added to active the channels and block of cinnamaldehyde induced calcium influx was measured.
IC50s were fit with a standard Hill function, keeping the Hill coefficient (n) fixed to 1.5. Fixing the Hill coefficient will generally reduce variability of the IC50 determination. The IC50s were individually examined to make sure the MIN and MAX points were set correctly prior to validation of the results.

How did the IC50 turn out when C[C@H]1[C@H](F)C[C@@H](C(=O)NCc2cc(-c3cnc(C(F)(F)F)nc3)ncc2Cl)N1S(=O)(=O)c1ccc(F)cc1 [Example 12, (2S,4R,5S)-N-[[5-chloro-2-[2-(trifluoromethyl)pyrimidin-5-yl]-4-pyridyl]methyl]-4-fluoro-1-(4-fluorophenyl)sulfonyl-5-methyl-pyrrolidine-2-carboxamide] was run?
Its IC50 is 2.94 nM.

Which IC50 does the source give for C[C@H]1[C@H](C#N)C[C@@H](C(=O)NCc2cc(-c3cnc(C(F)(F)F)nc3)ccc2F)N1S(=O)(=O)c1ccc(F)cc1 [Example 2, (2S,4R,5S)-4-cyano-N-([2-fluoro-5-[2-(trifluoromethyl)pyrimidin-5-yl]phenyl]methyl)-1-[(4-fluorobenzene)sulfonyl]-5-methylpyrrolidine-2-carboxamide] here?
Its IC50 is 7.46 nM.

For C[C@H]1[C@H](F)C[C@@H](C(=O)NCc2cc(-c3cnc(C(F)(F)F)nc3)nc(C3CC3)c2C(F)(F)F)N1S(=O)(=O)c1ccc(F)cc1 [Example 137, (2S,4R,5S)-N-[[2-cyclopropyl-3-(trifluoromethyl)-6-[2-(trifluoromethyl)pyrimidin-5-yl]-4-pyridyl]methyl]-4-fluoro-1-(4-fluorophenyl)sulfonyl-5-methyl-pyrrolidine-2-carboxamide], which IC50 is on record?
The IC50 was 0.7 nM.

COc1cnc(CNC(=O)[C@@H]2C[C@@H](F)[C@H](C)N2S(=O)(=O)c2ccc(F)cc2)cc1-c1cnc(C(F)(F)F)nc1 [Example 35, (2S,4R,5S)-4-fluoro-1-[(4-fluorobenzene)sulfonyl]-N-([5-methoxy-4-[2-(trifluoromethyl)pyrimidin-5-yl]pyridin-2-yl]methyl)-5-methylpyrrolidine-2-carboxamide] was tested. Which IC50 did it give?
The IC50 was 53.1 nM.

How did the IC50 turn out when C[C@H]1[C@H](F)C[C@@H](C(=O)NCc2cc(-c3cnc(C(F)(F)F)cn3)ncn2)N1S(=O)(=O)c1ccc(F)cc1 [Example 87, (2S,4R,5S)-4-fluoro-1-(4-fluorophenyl)sulfonyl-5-methyl-N-[[6-[5-(trifluoromethyl)pyrazin-2-yl]pyrimidin-4-yl]methyl]pyrrolidine-2-carboxamide] was run?
Its IC50 is 184 nM.

Which IC50 does the source give for C[C@H]1[C@H](F)C[C@@H](C(=O)NCc2cnc(C(F)(F)F)c(-c3cnc(C(F)(F)F)nc3)c2)N1S(=O)(=O)c1ccc(F)cc1 [Example 109, (2S,4R,5S)-4-fluoro-1-(4-fluorophenyl)sulfonyl-5-methyl-N-[[6-(trifluoromethyl)-5-[2-(trifluoromethyl)pyrimidin-5-yl]-3-pyridyl]methyl]pyrrolidine-2-carboxamide] here?
Its IC50 is 16.9 nM.

How did the IC50 turn out when C[C@H]1[C@H](F)C[C@@H](C(=O)NCc2cc(-c3cnc(C(F)(F)F)cn3)ncc2C(F)(F)F)N1S(=O)(=O)c1ccc(F)cc1 [Example 112, (2S,4R,5 S)-4-fluoro-1-(4-fluorophenylsulfonyl)-5-methyl-N-((5-(trifluoromethyl)-2-(5-(trifluoromethyl)pyrazin-2-yl)pyridin-4-yl)methyl)pyrrolidine-2-carboxamide] was run?
Its IC50 is 1.94 nM.

How did the IC50 turn out when C[C@H]1[C@H](F)C[C@@H](C(=O)NCc2cc(-c3cnc(C(F)(F)F)s3)ncc2C#N)N1S(=O)(=O)c1ccc(F)cc1 [Example 129, (2S,4R,5S)—N-((5-cyano-2-(2-(trifluoromethyl)thiazol-5-yl)pyridin-4-yl)methyl)-4-fluoro-1-((4-fluorophenyl)sulfonyl)-5-methylpyrrolidine-2-carboxamide] was run?
The IC50 was 4.14 nM.

Which IC50 does the source give for C[C@H]1[C@H](F)C[C@@H](C(=O)NCc2cc(-c3cnc(C(F)(F)F)nc3)nc(C3CC3)c2C#N)N1S(=O)(=O)c1ccc(F)cc1 [Example 104, (2S,4R,5S)—N-((3-cyano-2-cyclopropyl-6-(2-(trifluoromethyl)pyrimidin-5-yl)pyridin-4-yl)methyl)-4-fluoro-1-(4-fluorophenylsulfonyl)-5-methylpyrrolidine-2-carboxamide] here?
The IC50 was 0.682 nM.

With C[C@H]1[C@H](F)C[C@@H](C(=O)NCc2cc(-c3cnc(C(F)(F)F)s3)ncn2)N1S(=O)(=O)c1ccc(F)cc1 [Example 56, (2S,4R,5S)-4-fluoro-1-(4-fluorophenyl)sulfonyl-5-methyl-N-[[6-[2-(trifluoromethyl)thiazol-5-yl]pyrimidin-4-yl]methyl]pyrrolidine-2-carboxamide] as the molecule, how does the IC50 read?
Its IC50 is 66.9 nM.
